These results are taken from patent publication US20130261077A1 (priority 2012, published 2013).

Molecules are shown by their SMILES. Some results are limits rather than exact numbers.

This assay deals with T1, FimH-CRD (Escherichia coli, UniProt P08191).
T1 construct: The first 177 amino acids of the FimH protein; thrombin tag (printed as 'fusion protein with thrombin') (cleaved yes); made in house; host or cells: bacteria (pET21b plasmid)
T1 sequence (P08191 22-177): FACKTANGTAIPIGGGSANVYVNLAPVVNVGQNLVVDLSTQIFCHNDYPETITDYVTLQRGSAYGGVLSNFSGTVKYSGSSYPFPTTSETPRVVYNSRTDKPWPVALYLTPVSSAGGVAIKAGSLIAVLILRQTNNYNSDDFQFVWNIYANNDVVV
Briefly: Competitive binding assay by fluorescence polarization, assay 1 (compounds prepared by manual serial dilution). The method, boiled down: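 Fluorescence-polarization competition of 5 nM Alexa 647 mannoside probe with 60 nM FimH-CRD (first 177 residues, tag removed) in Tris-Cl pH 7.0, NaCl, EDTA, β-ME, BSA, 2.5% DMSO, 5 h at RT in the dark. Twelve-point 3-fold titrations (0.4 nM–75 μM) in duplicate; Kd interpolated from displacement curves.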
On the technique in general: In fluorescence polarisation assays a small probe gives low polarisation when free and higher when bound to something large.
As a reminder, the IC50 is the concentration that gives 50% inhibition. Read a high IC50 as lower potency. What is called Kd is the constant that tells how readily two partners part at equilibrium. Read a high Kd as a looser complex. In the case of `Cc1cc(NC(=O)c2cccc([C@H]3O[C@H](CO)[C@@H](O)[C@H](O)[C@@H]3O)c2)n(Cc2ccccc2)n1` [Compound 24, N-(1-benzyl-3-methyl-1H-pyrazol-5-yl)-3-((2R,3S,4R,5S,6R)-3,4,5-trihydroxy-6-(hydroxymethyl)tetrahydro-2H-pyran-2-yl)benzamide], the IC50 was determined as 243 nM and the dissociation constant (Kd) was 56.7 ± 0.2 nM.

With `CNC(=O)c1cccc(-c2ccc([C@H]3O[C@H](CO)[C@@H](O)[C@H](O)[C@@H]3O)cc2)c1` [Compound 295, N-methyl-4′-((2R,3S,4R,5S,6R)-3,4,5-trihydroxy-6-(hydroxymethyl)tetrahydro-2H-pyran-2-yl)-[1,1′-biphenyl]-3-carboxamide], the Kd was 12 ± 3 nM.

`O=C(NCC1CC1)c1cccc([C@H]2O[C@H](CO)[C@@H](O)[C@H](O)[C@@H]2O)c1` [Compound 37, N-(cyclopropylmethyl)-3-((2R,3S,4R,5S,6R)-3,4,5-trihydroxy-6-(hydroxymethyl)tetrahydro-2H-pyran-2-yl)benzamide] gave a Kd of 40.1 ± 15.1 nM.

Consider `OC[C@H]1O[C@H](c2cccc(-c3cccnc3)c2)[C@@H](O)[C@@H](O)[C@@H]1O` [Compound 9, (2R,3S,4R,5S,6R)-2-(hydroxymethyl)-6-[3-(3-pyridyl)phenyl]tetrahydropyran-3,4,5-triol], for which the concentration for half-maximal inhibition (IC50) turned out to be 163 nM and the Kd is 28.5 ± 23.7 nM.

In turn, `CNC(=O)c1cccc(-c2ccccc2[C@H]2O[C@H](CO)[C@@H](O)[C@H](O)[C@@H]2O)c1` [Compound 39, N-methyl-2′-((2R,3S,4R,5S,6R)-3,4,5-trihydroxy-6-(hydroxymethyl)tetrahydro-2H-pyran-2-yl)-[1,1′-biphenyl]-3-carboxamide] had an IC50 of 1390 nM and a Kd of 396 ± 44.7 nM.

With `O=C(NCc1ccccc1)c1cccc([C@H]2O[C@H](CO)[C@@H](O)[C@H](O)[C@@H]2O)c1` [Compound 33, N-benzyl-3-((2R,3S,4R,5S,6R)-3,4,5-trihydroxy-6-(hydroxymethyl)tetrahydro-2H-pyran-2-yl)benzamide], the IC50 was 76 nM and binding was put at a Kd of 28.9 ± 14.5 nM.

`COC(=O)c1ccc(Oc2cccc([C@H]3O[C@H](CO)[C@@H](O)[C@H](O)[C@@H]3O)c2)cc1` [Compound 52, Methyl 4-[3-[(2R,3S,4R,5S,6R)-3,4,5-trihydroxy-6-(hydroxymethyl)tetrahydropyran-2-yl]phenoxy]benzoate] returned a 50% inhibitory concentration (IC50) of 23 nM and a Kd of under 5 nM.

The compound `Cn1nc(C(F)(F)F)cc1-c1cccc([C@H]2O[C@H](CO)[C@@H](O)[C@H](O)[C@@H]2O)c1` [Compound 18, (2R,3S,4R,5S,6R)-2-(hydroxymethyl)-6-(3-(1-methyl-3-(trifluoromethyl)-1H-pyrazol-5-yl)phenyl)tetrahydro-2H-pyran-3,4,5-triol] came in with an IC50 of 160 nM and a Kd of 33.7 ± 15.8 nM.

On to `OC[C@H]1O[C@H](c2cccc(-c3ccc4c(c3)OCCO4)c2)[C@@H](O)[C@@H](O)[C@@H]1O` [Compound 20, (2R,3S,4R,5S,6R)-2-(3-(2,3-dihydrobenzo[b][1,4]dioxin-6-yl)phenyl)-6-(hydroxymethyl)tetrahydro-2H-pyran-3,4,5-triol], for which the IC50 worked out at 55 nM and the Kd was found to be 7.1 ± 2.4 nM.

`OC[C@H]1O[C@H](O[C@@H]2[C@H](O)[C@@H](c3cccc(-c4cncnc4)c3)O[C@H](CO)[C@H]2O)[C@@H](O)[C@@H](O)[C@@H]1O` [Compound 279, (2R,3S,4S,5S,6R)-2-[(2R,3R,4R,5R,6R)-3,5-Dihydroxy-2-(hydroxymethyl)-6-(3-pyrimidin-5-ylphenyl)tetrahydropyran-4-yl]oxy-6-(hydroxymethyl)tetrahydropyran-3,4,5-triol]: the IC50 stood at 51 nM and binding was characterised by a dissociation constant (Kd) of 9.9 ± 1.1 nM.

The compound `CNC(=O)c1ccc(Oc2cccc([C@H]3O[C@H](CO)[C@@H](O)[C@H](O[C@H]4O[C@H](CO)[C@@H](O)[C@H](O)[C@@H]4O)[C@@H]3O)c2)cc1` [Compound 267, 4-[3-[(2R,3R,4R,5R,6R)-3,5-Dihydroxy-6-(hydroxymethyl)-4-[(2R,3S,4S,5S,6R)-3,4,5-trihydroxy-6-(hydroxymethyl)tetrahydropyran-2-yl]oxy-tetrahydropyran-2-yl]phenoxy]-N-methyl-benzamide] returned an IC50 of 68 nM and a Kd of 12.8 ± 8 nM.

Regarding `OC[C@H]1O[C@H](c2cccc(Oc3ccccc3)c2)[C@@H](O)[C@@H](O)[C@@H]1O` [Compound 59, (2R,3S,4R,5S,6R)-2-(hydroxymethyl)-6-(3-phenoxyphenyl)tetrahydropyran-3,4,5-triol], the IC50 is 26 nM and the Kd came to 6.3 ± 0.9 nM.

As for `COc1ccc([C@H]2O[C@H](CO)[C@@H](O)[C@H](O)[C@@H]2O)cc1-c1ccc(-c2nnc(C)o2)cc1` [Compound 132, (2R,3S,4R,5S,6R)-2-(hydroxymethyl)-6-[4-methoxy-3-[4-(5-methyl-1,3,4-oxadiazol-2-yl)phenyl]phenyl]tetrahydropyran-3,4,5-triol], binding was characterised by a dissociation constant (Kd) of 6.9 ± 0.02 nM.

Take `OC[C@H]1O[C@H](O[C@@H]2[C@H](O)[C@@H](c3cccc(C4CCCCC4)c3)O[C@H](CO)[C@H]2O)[C@@H](O)[C@@H](O)[C@@H]1O` [Compound 278, (2R,3S,4S,5S,6R)-2-[(2R,3R,4R,5R,6R)-2-(3-Cyclohexylphenyl)-3,5-dihydroxy-6-(hydroxymethyl)tetrahydropyran-4-yl]oxy-6-(hydroxymethyl)tetrahydropyran-3,4,5-triol]: the IC50 was determined as 64 nM and the affinity, expressed as Kd, was 12.7 ± 0.9 nM.

For the compound `O=C(Nc1ccc2ncccc2c1)c1cccc([C@H]2O[C@H](CO)[C@@H](O)[C@H](O)[C@@H]2O)c1` [Compound 26, N-(quinolin-6-yl)-3-((2R,3S,4R,5S,6R)-3,4,5-trihydroxy-6-(hydroxymethyl)tetrahydro-2H-pyran-2-yl)benzamide], the IC50 turned out to be 100 nM and the Kd is 16.8 ± 7.8 nM.

On to `OC[C@H]1O[C@H](O[C@@H]2[C@H](O)[C@@H](c3cccc(OCC4CCCC4)c3)O[C@H](CO)[C@H]2O)[C@@H](O)[C@@H](O)[C@@H]1O` [Compound 285, (2R,3S,4S,5S,6R)-2-[(2R,3R,4R,5R,6R)-2-[3-(Cyclopentylmethoxy)phenyl]-3,5-dihydroxy-6-(hydroxymethyl)tetrahydropyran-4-yl]oxy-6-(hydroxymethyl)-tetrahydropyran-3,4,5-triol], for which the IC50 was 80 nM and the Kd stood at 14.7 ± 1.2 nM.

With `OC[C@H]1O[C@H](c2cccc(-c3ccc4cc(O)ccc4c3)c2)[C@@H](O)[C@@H](O)[C@@H]1O` [Compound 17, (2R,3S,4R,5S,6R)-2-(hydroxymethyl)-6-[3-(6-hydroxy-2-naphthyl)phenyl]tetrahydropyran-3,4,5-triol], the IC50 turned out to be 48 nM and the Kd was 8.6 ± 2.5 nM.

In turn, `CCCOc1ccc(F)c(-c2cccc([C@H]3O[C@H](CO)[C@@H](O)[C@H](O)[C@@H]3O)c2)c1` [Compound 19] returned an IC50 of 52 nM and a Kd of 6.2 ± 1.2 nM.

With `CNC(=O)c1cccc(Oc2cccc([C@H]3O[C@H](CO)[C@@H](O)[C@H](O)[C@@H]3O)c2)c1` [Compound 5, N-methyl-3-[3-[(2R,3S,4R,5S,6R)-3,4,5-trihydroxy-6-(hydroxymethyl)tetrahydropyran-2-yl]phenoxy]benzamide], the IC50 came to 18 nM and the Kd is under 5 nM.

Take `CNC(=O)c1ccc(-c2ccc([C@H]3O[C@H](CO)[C@@H](O)[C@H](O)[C@@H]3O)cc2)cc1` [Compound 296, N-methyl-4′-((2R,3S,4R,5S,6R)-3,4,5-trihydroxy-6-(hydroxymethyl)tetrahydro-2H-pyran-2-yl)-[1,1′-biphenyl]-4-carboxamide]: binding was characterised by a dissociation constant (Kd) of 5 ± 0.4 nM.

With `COc1cccc([C@H]2O[C@H](CO)[C@@H](O)[C@H](O[C@H]3O[C@H](CO)[C@@H](O)[C@H](O)[C@@H]3O)[C@@H]2O)c1` [Compound 284, (2R,3S,4S,5S,6R)-2-[(2R,3R,4R,5R,6R)-3,5-Dihydroxy-2-(hydroxymethyl)-6-(3-methoxyphenyl)tetrahydropyran-4-yl]oxy-6-(hydroxymethyl)tetrahydropyran-3,4,5-triol], the IC50 stood at 49 nM and the dissociation constant (Kd) worked out at 166 ± 96.5 nM.

Take `OC[C@H]1O[C@H](O[C@@H]2[C@H](O)[C@@H](c3ccc(O)cc3)O[C@H](CO)[C@H]2O)[C@@H](O)[C@@H](O)[C@@H]1O` [Compound 266, (2R,3S,4S,5S,6R)-2-[(2R,3R,4R,5R,6R)-3,5-Dihydroxy-2-(hydroxymethyl)-6-(4-hydroxyphenyl)tetrahydropyran-4-yl]oxy-6-(hydroxymethyl)tetrahydropyran-3,4,5-triol]: the IC50 is 59 nM and the Kd was found to be 21.3 ± 6.2 nM.

Take `COc1ccc(Br)cc1[C@H]1O[C@H](CO)[C@@H](O)[C@H](O)[C@@H]1O` [Compound 41, (2R,3S,4R,5S,6R)-2-(5-bromo-2-methoxyphenyl)-6-(hydroxymethyl)tetrahydro-2H-pyran-3,4,5-triol]: the IC50 is 223 nM and the Kd was 47.8 ± 6.8 nM.

Regarding `Cn1cnc2ccc(-c3cccc([C@H]4O[C@H](CO)[C@@H](O)[C@H](O[C@H]5O[C@H](CO)[C@@H](O)[C@H](O)[C@@H]5O)[C@@H]4O)c3)cc21` [Compound 280, (2R,3S,4S,5S,6R)-2-[(2R,3R,4R,5R,6R)-3,5-Dihydroxy-2-(hydroxymethyl)-6-[3-(3-methylbenzimidazol-5-yl)phenyl]tetrahydropyran-4-yl]oxy-6-(hydroxymethyl)tetrahydropyran-3,4,5-triol (Trifluoroacetate Ion (1))], the IC50 worked out at 59 nM and the Kd is 18.1 ± 7.1 nM.

As to `COC(=O)c1cc(Oc2cccc([C@H]3O[C@H](CO)[C@@H](O)[C@H](O)[C@@H]3O)c2)cc(C(=O)OC)c1` [Compound 51, Dimethyl 5-[3-[(2R,3S,4R,5S,6R)-3,4,5-trihydroxy-6-(hydroxymethyl)tetrahydropyran-2-yl]phenoxy]benzene-1,3-dicarboxylate], the IC50 worked out at 33 nM and the affinity, expressed as Kd, was 5.2 ± 0.1 nM.
